# Results taken from US20250221410A1, “SUBSTITUTED 2-C-AZINES AND SALTS THEREOF, AND USE THEREOF AS HERBICIDAL ACTIVE SUBSTANCES” (BAYER AKTIENGESELLSCHAFT, priority 2022, published 2025).
# Key:
# [1] = test system: DIGSA: Digitaria sanguinalis; assay: Post-emergence herbicidal efficacy at 1280 g/ha, DIGSA; type: in vivo; settings: rated visually after about 3 weeks vs untreated controls, 100% = plants have died, 0% = like control plants
# Summary of the method: (§1)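 Greenhouse pot test in sandy loam. Plants at the one-leaf stage, 2–3 weeks after sowing, were sprayed post-emergence with WP or EC formulations in water containing 0.5% additive, at 600 L/ha. Activity was scored visually about 3 weeks later against untreated controls (100% = dead, 0% = as control).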
# POAAN: Poa annua [2] = assay: Post-emergence herbicidal efficacy at 1280 g/ha, POAAN; type: in vivo; settings: visual rating about 3 weeks after treatment vs untreated controls
# Summary of the method: as §1
# SETVI: Setaria viridis [3] = assay: Post-emergence herbicidal efficacy at 1280 g/ha, SETVI; type: in vivo; settings: visual rating about 3 weeks after treatment vs untreated controls
# Summary of the method: as §1
# STEME: Stellaria media [4] = assay: Post-emergence herbicidal efficacy at 1280 g/ha, STEME; type: in vivo; settings: visual rating about 3 weeks after treatment vs untreated controls
# Summary of the method: as §1
# VERPE: Veronica persica [5] = assay: Post-emergence herbicidal efficacy at 1280 g/ha, VERPE; type: in vivo; settings: visual rating about 3 weeks after treatment vs untreated controls
# Summary of the method: as §1
# [6] = test system: AMARE: Amaranthus retroflexus; assay: Post-emergence herbicidal efficacy at 80 g/ha, AMARE; type: in vivo; settings: visual rating about 3 weeks after treatment vs untreated controls
# Summary of the method: (§2)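 Pot-grown weeds in sandy loam were sprayed at one-leaf stage (2–3 weeks post-sowing) with WP or EC formulations plus 0.5% additive at 600 l/ha water. About 3 weeks later in the greenhouse, activity was rated visually against untreated controls, 0% = like control, 100% = dead.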
# POLCO = assay: Post-emergence herbicidal efficacy at 80 g/ha, POLCO; type: in vivo, Polygonum convolvulus; settings: visual rating about 3 weeks after treatment vs untreated controls
# Procedure: Seeds of monocotyledonous and dicotyledonous weeds and crop plants were placed in sandy loam in plastic or organic planting pots, covered with soil and cultivated in a greenhouse under controlled growth conditions. 2 to 3 weeks after sowing, the test plants were treated at the one-leaf stage. The compounds of the invention, formulated in the form of wettable powders (WP) or as emulsion concentrates (EC), were then sprayed onto the green parts of the plants as aqueous suspension or emulsion with addition of 0.5% additive at a water application rate of 600 l/ha (converted). After the test plants had been kept in the greenhouse under optimum growth conditions for about 3 weeks, the activity of the preparations was rated visually in comparison to untreated controls. For example, 100% activity=the plants have died, 0% activity=like control plants. Tables B1 to B10 below show the effects of selected compounds of the general formula (I) according to Table 1 on various harmful plants and an application rate corresponding to 80 g/ha, which were obtained by the experimental procedure mentioned above.
# VERPE: Veronica persica [7] = assay: Post-emergence herbicidal efficacy at 80 g/ha, VERPE; type: in vivo; settings: visual rating about 3 weeks after treatment vs untreated controls
# Summary of the method: as §2
# [8] = test system: AMARE: Amaranthus retroflexus; assay: Pre-emergence herbicide efficacy at 1280 g/ha, AMARE; type: in vivo; settings: visual scoring after about 3 weeks vs untreated controls
# Summary of the method: (§3)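 Pre-emergence pot test in sandy loam: WP or EC formulations sprayed onto covering soil after sowing, as aqueous suspension/emulsion with 0.5% additive at 600 L/ha water. Plants grown in greenhouse; after about 3 weeks, efficacy scored visually as % versus untreated controls (100% = dead, 0% = like control).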
# [9] = test system: DIGSA: Digitaria sanguinalis; assay: Pre-emergence herbicide efficacy at 1280 g/ha, DIGSA; type: in vivo; settings: visual scoring after about 3 weeks vs untreated controls
# Summary of the method: as §3
# LOLRI: Lolium rigidum = assay: Pre-emergence herbicide efficacy at 1280 g/ha, LOLRI; type: in vivo; settings: visual scoring after about 3 weeks vs untreated controls
# Summary of the method: as §3
# [10] = test system: MATIN: Matricaria inodora; assay: Pre-emergence herbicide efficacy at 1280 g/ha, MATIN; type: in vivo; settings: visual scoring after about 3 weeks vs untreated controls
# Summary of the method: as §3
# POAAN: Poa annua [11] = assay: Pre-emergence herbicide efficacy at 1280 g/ha, POAAN; type: in vivo; settings: visual scoring after about 3 weeks vs untreated controls
# Summary of the method: as §3
# SETVI: Setaria viridis [12] = assay: Pre-emergence herbicide efficacy at 1280 g/ha, SETVI; type: in vivo; settings: visual scoring vs untreated controls
# Summary of the method: as §3
# STEME: Stellaria media [13] = assay: Pre-emergence herbicide efficacy at 1280 g/ha, STEME; type: in vivo; settings: visual scoring vs untreated controls
# Summary of the method: as §3
# VERPE: Veronica persica [14] = assay: Pre-emergence herbicide efficacy at 1280 g/ha, VERPE; type: in vivo; settings: visual scoring vs untreated controls
# Summary of the method: as §3
# [15] = test system: ABUTH: Abutilon theophrasti; assay: Pre-emergence herbicide efficacy at 80 g/ha, ABUTH; type: in vivo; settings: scored visually after about 3 weeks
# Summary of the method: (§4)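 Seeds sown in pots and covered with soil received WP or EC formulations sprayed onto the soil surface at 80 g/ha, 600 l/ha water, with 0.5% additive. After about 3 weeks in greenhouse, efficacy was visually scored as percent versus untreated controls (100% = plants dead, 0% = like control).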
# [16] = test system: AMARE: Amaranthus retroflexus; assay: Pre-emergence herbicide efficacy at 80 g/ha, AMARE; type: in vivo; settings: scored visually after about 3 weeks
# Summary of the method: as §4
# [17] = test system: DIGSA: Digitaria sanguinalis; assay: Pre-emergence herbicide efficacy at 80 g/ha, DIGSA; type: in vivo; settings: scored visually after about 3 weeks
# Summary of the method: as §4
# KCHSC: Kochia scoparia = assay: Pre-emergence herbicide efficacy at 80 g/ha, KCHSC; type: in vivo; settings: scored visually after about 3 weeks
# From the text: (§5) Seeds of monocotyledonous and dicotyledonous weed plants and crop plants were placed in plastic or organic planting pots and covered with soil. The compounds of the invention, formulated in the form of wettable powders (WP) or as emulsion concentrates (EC), were then applied to the surface of the covering soil as aqueous suspension or emulsion with addition of 0.5% additive at a water application rate equivalent to 600 l/ha. After the treatment, the pots were placed in a greenhouse and kept under good growth conditions for the test plants. After about 3 weeks, the efficacy of the preparations was scored visually in comparison with untreated controls as percentages. For example, 100% activity=the plants have died, 0% activity=like control plants. Tables D1 to D12 below show the effects of selected compounds of the general formula (I) according to Table 1 on various harmful plants and an application rate corresponding to 80 g/ha, which were obtained by the experimental procedure mentioned above.
# [18] = test system: MATIN: Matricaria inodora; assay: Pre-emergence herbicide efficacy at 80 g/ha, MATIN; type: in vivo; settings: scored visually after about 3 weeks
# Summary of the method: as §4
# SETVI: Setaria viridis [19] = assay: Pre-emergence herbicide efficacy at 80 g/ha, SETVI; type: in vivo; settings: scored visually after about 3 weeks
# Summary of the method: as §4
# VERPE: Veronica persica [20] = assay: Pre-emergence herbicide efficacy at 80 g/ha, VERPE; type: in vivo; settings: scored visually after about 3 weeks
# Summary of the method: as §4
# VIOTR: Viola tricolor = assay: Pre-emergence herbicide efficacy at 80 g/ha, VIOTR; type: in vivo; settings: scored visually after about 3 weeks
# From the text: as §5
Compound,Post-emergence efficacy at 1280 g/ha against DIGSA in % [1],Post-emergence efficacy against POAAN (POAAN: Poa annua [2]),Post-emergence efficacy against SETVI (SETVI: Setaria viridis [3]),Post-emergence efficacy against STEME (STEME: Stellaria media [4]),Post-emergence efficacy against VERPE (VERPE: Veronica persica [5]),Post-emergence efficacy against AMARE [6],Post-emergence efficacy against VERPE (VERPE: Veronica persica [7]),Pre-emergence efficacy against AMARE [8],Pre-emergence efficacy against DIGSA [9],Pre-emergence efficacy against LOLRI (LOLRI: Lolium rigidum),Pre-emergence efficacy against MATIN [10],Pre-emergence efficacy against POAAN (POAAN: Poa annua [11]),Pre-emergence efficacy against SETVI in % (SETVI: Setaria viridis [12]),Pre-emergence efficacy against STEME in % (STEME: Stellaria media [13]),Pre-emergence efficacy against VERPE in % (VERPE: Veronica persica [14]),Pre-emergence efficacy against ABUTH in % [15],Pre-emergence efficacy against AMARE in % [16],Pre-emergence efficacy against DIGSA in % [17],Pre-emergence efficacy against KCHSC in % (KCHSC: Kochia scoparia),Pre-emergence efficacy against MATIN in % [18],further results
Fc1cnc(Oc2cccc(Br)c2Cc2ncc(Cl)cn2)nc1 [Example 1-54],90%,100%,100%,100%,100%,100%,100%,100%,100%,100%,100%,100%,100%,100%,100%,100%,100%,100%,100%,90%,Post-emergence efficacy against POLCO (POLCO): 80%; Pre-emergence efficacy against SETVI in % (SETVI: Setaria viridis [19]): 100%; Pre-emergence efficacy against VERPE in % (VERPE: Veronica persica [20]): 90%; Pre-emergence efficacy against VIOTR in % (VIOTR: Viola tricolor): 100%
Clc1cnc(Cc2c(Cl)cccc2Oc2ncc(Cl)cn2)nc1 [Example 1-56],90%,90%,90%,90%,90%,100%,100%,100%,100%,100%,100%,100%,100%,100%,100%,100%,100%,100%,90%,100%,Post-emergence efficacy against POLCO (POLCO): 80%; Pre-emergence efficacy against SETVI in % (SETVI: Setaria viridis [19]): 100%; Pre-emergence efficacy against VERPE in % (VERPE: Veronica persica [20]): 90%; Pre-emergence efficacy against VIOTR in % (VIOTR: Viola tricolor): 100%
N#Cc1cccc(Oc2ncc(F)cn2)c1Cc1ncc(Cl)cn1 [Example 1-59],100%,100%,90%,100%,100%,100%,90%,100%,100%,100%,100%,100%,100%,100%,100%,100%,100%,100%,100%,100%,Pre-emergence efficacy against SETVI in % (SETVI: Setaria viridis [19]): 100%; Pre-emergence efficacy against VERPE in % (VERPE: Veronica persica [20]): 90%; Pre-emergence efficacy against VIOTR in % (VIOTR: Viola tricolor): 100%
FC(F)c1cc(-c2ccccc2Cc2ncc(Cl)cn2)on1 [Example 1-133],100%,100%,100%,100%,100%,100%,100%,100%,100%,90%,100%,100%,100%,100%,100%,100%,100%,100%,100%,80%,Post-emergence efficacy against POLCO (POLCO): 100%; Pre-emergence efficacy against SETVI in % (SETVI: Setaria viridis [19]): 100%; Pre-emergence efficacy against VERPE in % (VERPE: Veronica persica [20]): 90%; Pre-emergence efficacy against VIOTR in % (VIOTR: Viola tricolor): 80%
